# Values joined by “and” are separate entries in the source; they are usually repeats but may differ in a detail not shown here. Equal entries are not always repeated. “Also recorded” adds a separate entry of the source.
# Legend:
# [1] = target: Ape1 (Homo sapiens, UniProt P27695); assay: Ape1 activity on a duplex containing AP; type: biochemical
# [2] = tested on: HeLa cells; assay: Clonogenic assay for cell survival; type: cell-based, human; settings: for cell death, individual treatment: pro-13 5 μM, pro-1 5 μM, MMS 0.1 mM; for enhancement (potentiation) of MMS cytotoxicity: compared to individual agents
# Protocol: HeLa (human cervical carcinoma) cells were maintained in Dulbecco's Modified Eagle's Medium (DMEM), supplemented with 10% fetal bovine serum (FBS), 100 U mL^−1 of penicillin and 100 μg mL^−1 of streptomycin at 37° C. in a humidified incubator at 5% CO2. […] At 90% confluency, there are around 1.5×10^7 cells in one dish of 150 mm×25 mm. Cell viability assay. […] After the indicated time, the medium was removed from the cell culture by aspiration, and washed once with PBS. A stock solution of bleomycin sulphate (1 mM) in DMSO was diluted in the culture medium to 2 μM and then added to the plates keeping the quantity of DMSO constant at 1% for all tests. Cells were then incubated for 2 h at 37° C. in a CO2 incubator. The medium was then subsequently replaced with fresh DMEM-FBS and incubation was continued for an additional 1 or 2 h at 37° C. in a CO2 incubator. […] A portion (10 μL) of the cell suspension was thoroughly mixed with 10 μL of 0.4% solution of trypan blue in PBS (pH 7.2 to 7.3), and placed on a counting slide (BIO-RAD) to count the % of live cells using a TC20 automated cell counter (BIO-RAD). A control experiment without treating with bleomycin sulphate was carried out in parallel. All the experiments were carried out at least 3 times, and each experiment consisted of 3 replicates.
# After overnight incubation at 37° C. in a humidified atmosphere of 5% CO2, cells were subjected to the appropriate DNA damaging conditions (or controls). For alkylation experiments, cells were incubated with MMS (0, 0.1, or 0.2 mM), with or without pro-13 (5 μM) for 1 or 2 h. For experiments involving recovery after MMS treatment, the medium containing MMS and/or pro-13 was replaced after 2 h with fresh medium with or without pro-13 (5 μM) and incubation continued for 2-8 h. For BLM experiments, cells were incubated with BLM (2 μM), with or without pro-13 (5 μM) for 2 h, at which time the medium was replaced with fresh medium containing only pro-13 (5 μM) and incubation was continued for 2 h. The growth medium was then removed from each well and the cells were washed with PBS (2×1 mL). […] The single cell suspensions were collected in 1.6 mL tubes and counted using a Bio-Rad TC20 Automated Cell Counter. Stock solutions of single cell suspensions were made in two groups for each concentration with 500 cells/mL (for untreated control) and 1500 cells/mL (for treated cells), respectively. These cells were seeded in 6 well plates (well size; 35 mm×18 mm) in 2 mL of 10% DMEM-FBS. The plates were incubated in humidified atmosphere with 5% CO2 for 7 days. After 7 days, the growth medium was discarded and the attached cells were treated with 0.2% w/v crystal violet solution. The excess dye was washed with water and the colonies were counted under a stereomicroscope. Plating efficiencies (PE) and survival fractions (SF) were calculated as follows: PE=number of colonies[…]number of cells seeded; SF=PE[…]PE (control).
# [3] = tested on: HeLa cells; assay: AP/dRP site accumulation in genomic DNA (aldehyde reactive probe); type: cell-based, human
# Excerpt: Evidence that pro-13 leads to BER inhibition in HeLa cells was obtained by determining its effect on the level of aldehyde reactive probe (ARP) sites (Table 1). ARP is routinely used to quantify AP sites in DNA, and has been employed to validate Ape1 inhibition, but dRP detection via this method was not known. Rai et al., 2012; Dorjsuren et al., 2012; Ide et al., 1993; Asaeda et al., 1998. […] Inhibition of Pol β (and/or Pol λ) should lead to a build-up of dRP sites instead of AP, which would be indistinguishable from AP using ARP (Scheme 11). […] The level of AP/dRP sites in the genomic DNA isolated from HeLa cells treated with MMS, pro-13 or a combination, was subsequently measured. Following treatment with the DNA damaging agent (1 h), the medium was replaced with fresh medium with or without pro-13 (5 μM), and the cells were incubated an additional 23 h. The level of ARP reactive sites increased approximately 3-fold when cells were treated with a combination of MMS and pro-13 compared to just the alkylating agent (Table 1), consistent with the inhibition of BER in cells treated with the proinhibitor.
# HeLa cells (approximately 1×10^7) were plated in 150 mm×25 mm dishes and treated with DMSO (1% final concentration), MMS (0.3 or 0.4 mM), or pro-13 (5 μM) alone or with a combination of MMS (0.3 or 0.4 mM), and pro-13 (5 μM) for 1 h at 37° C. The cellular medium was then replaced with fresh DMEM-FBS and incubation was continued for 23 h at 37° C. in a CO2 incubator in the absence or presence of pro-13 (5 μM). Cells were then harvested with 0.25% Trypsin-EDTA, and the genomic DNA of each sample was isolated according to Dojindo Genomic DNA isolation kit (www.dojindo.com/TechnicalManual/Manual_GKO3.pdf). The concentration of genomic DNA was measured at 260 nm and adjusted to 100 ng/μL. An aliquot of purified DNA (1 μg) was labeled with 10 μL of aldehyde reactive probe (ARP) reagent (N′-aminooxymethylcarbonylhydrazino-D-biotin), and AP/dRP sites were determined using the DNA damage quantification kit from Dojindo Molecular Technologies (DK02-12) by measuring the absorbance at 650 nm using an ELISA microplate reader (BioRad).
# [4] = tested on: HeLa cells; assay: Comet assay to visualize DNA damage; type: cell-based, human; settings: BLM 2 μM 2 h
# Protocol: Bleomycin sulphate treatment of HeLa cells was carried out exactly in the same way as described above. The only difference was that approximately […] HeLa cells were plated in each well of the 6 wells culture plate. After the required incubation steps, the medium was aspirated from the cell culture, and washed with PBS (3×) by adding 5 mL of PBS to each well, scratching with a cell scraper (3 cm blade) and transferring the cells to a 15 mL Falcon tube. Cells were pelleted by centrifuging at 3000 g for 10 min at room temperature. Cells were resuspended in PBS and pelleted again. For the comet assay, cells were suspended in 2 mL PBS/well and counted (generally approximately 1×10^7/mL). An aliquot (10 μL) of the cell suspension was diluted to 1×10^5 cells/mL using PBS and used in an Oxiselect™ Comet Assay Kit (Cell Biolabs, INC. Catalog number STA-350) according to the product manual (www.cellbiolabs.com/sites/default/files/STA-350-comet-assay-kit.pdf). In brief, cell samples were combined with Comet Agarose at 1:10 ratio (v/v), titrurated with a pipette to mix, and immediately pipette 75 μL/well onto the OxiSelect™ Comet Slide. […] View slides by a fluorescence microscopy using a FITC filter. […] The relative tail lengths were determined with Open Comet software.
# Sequence of Ape1 (P27695 whole entry): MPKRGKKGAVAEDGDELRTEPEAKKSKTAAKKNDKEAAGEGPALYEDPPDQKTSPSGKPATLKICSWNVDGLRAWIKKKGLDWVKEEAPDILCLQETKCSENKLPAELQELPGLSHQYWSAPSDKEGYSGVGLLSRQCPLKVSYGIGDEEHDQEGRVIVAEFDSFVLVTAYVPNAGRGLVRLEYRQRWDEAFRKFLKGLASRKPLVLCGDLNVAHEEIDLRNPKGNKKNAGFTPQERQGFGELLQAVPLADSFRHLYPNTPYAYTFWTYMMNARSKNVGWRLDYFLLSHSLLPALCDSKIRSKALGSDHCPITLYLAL
compound,measurement,setting,value
COc1cc(Cl)c(/C=N/OC2C[C@H](n3cc(CNC(=O)c4cc5c(O)cccc5cc4O)c(=O)[nH]c3=O)O[C@@H]2COP(=O)(O)OCC2C[C@H](O)O[C@@H]2O)c(Cl)c1O (stereo partly drawn) [Compound 13],effect on Ape1 activity,[1],does not affect
"COS(C)(=O)=O [MMS, methyl methanesulfonate, reference compound]","cell death, individual treatment",[2]; 2 h,15%
same,cells survived,"[2]; MMS 0.2 mM without proinhibitor, 2 h",25%
same,AP/dRP sites/10^5 bp,"[3]; HeLa, MMS 0.3 mM, no pro-13",9.2 ± 1.2 sites/10^5 bp
same,AP/dRP sites/10^5 bp,"[3]; HeLa, MMS 0.4 mM, no pro-13",11.0 ± 1.5 sites/10^5 bp
COc1cc(Cl)c(/C=N/OC2C[C@H](n3cc(CNC(=O)c4cc5c(O)cccc5cc4O)c(=O)[nH]c3=O)O[C@@H]2COP(=O)(O)OCC2C[C@H](OC(C)=O)O[C@@H]2OC(C)=O)c(Cl)c1O (stereo partly drawn) [pro-13],cytotoxicity of proinhibitor alone,[2]; 5 μM,modest cytotoxic effects
same,cell death,"[2]; 5 μM alone, 1 h",2%
same,cells survive,"[2]; 5 μM alone, 2 h",93%
same,synergism with MMS,"[2]; 5 μM, MMS 0.1 or 0.2 mM, 1 or 2 h",synergistic effects
same,cytotoxicity of proinhibitor alone,"[2]; 5 μM, listed as Pro-13",only slightly cytotoxic; also recorded: only weakly cytotoxic
same,"cell death, individual treatment",[2]; 2 h,7%
same,fraction cell survival relative to cells incubated in absence of pro-13,"[2]; MMS 0.1 mM + pro-13 2 h, then 4 h additional incubation with pro-13 5 μM",1/7
same,cells survive,"[2]; MMS 0.1 mM + pro-13 2 h, then 8 h additional incubation with pro-13 5 μM",0.20±0.02% and 0.2%
same,decrease in fraction cell survival,[2]; pro-13 5 μM + BLM 2 μM vs BLM alone,more than 2 fold
same,fraction survival,"[2]; pro-13 5 μM + MMS 0.1 mM, 2 h",0.23 and 0.21±0.04
same,fraction survival lower than expected from agents used separately,"[2]; pro-13 5 μM + MMS 0.1 mM, 2 h",approximately 3.4 fold
same,enhancement (potentiation) of MMS cytotoxicity,[2]; pro-13 5 μM + MMS 0.2 mM,~13 fold
same,enhancement (potentiation) of MMS cytotoxicity,"[2]; pro-13 5 μM + MMS 0.2 mM, listed as Pro-13",approximately 13 fold
same,cells survived,"[2]; pro-13 5 μM + MMS 0.2 mM, longer reaction time (2 h)",< 2%
same,cells survive,[2]; pro-13 5 μM co-incubated with BLM 2 μM,43%
same,abasic site repair,[3]; HeLa cells,inhibited
same,AP/dRP sites/10^5 bp,"[3]; HeLa, MMS 0.3 mM + pro-13 5 μM",28.0 ± 1.4 sites/10^5 bp
same,AP/dRP sites/10^5 bp,"[3]; HeLa, MMS 0.4 mM + pro-13 5 μM",33.0 ± 1.5 sites/10^5 bp
same,increase in ARP reactive (abasic) sites vs MMS alone,"[3]; HeLa, MMS + pro-13 5 μM",approximately 3 fold
same,AP/dRP sites/10^5 bp,"[3]; HeLa, pro-13 5 μM, no MMS",4.6 ± 1.0 sites/10^5 bp
bleomycin [BLM],cell death,"[2]; BLM 2 μM alone 2 h, 2 h recovery",No observable cell death
same,DNA damage (tail length),[4],confirms DNA damage; also recorded: increase in the tail length

# Source: patent US10711027B2, “DNA polymerase beta inhibitors” (The Johns Hopkins University, priority 2016, dated 2020)
